Data set [1] has as its system Avena fatua. Put plainly: Post-emergence herbicidal activity against Avena fatua under greenhouse conditions compound treated at 1.5-leaf stage measured after 3 weeks by pot test relative to diclofop-methyl. Type of data set: functional.
For data set [2], the system named is Triticum aestivum. Nature of the data set: Phytotoxicity against Triticum aestivum (wheat) under greenhouse conditions at 5 g/a at 1.5-leaf stage measured after 3 weeks by pot test. The data set is classed as organism-based. The conditions noted are these: in vivo, 504 h.
Data set [3] deals with Triticum aestivum. Nature of the data set: Phytotoxicity against Triticum aestivum (wheat) under greenhouse conditions at 2.5 g/a at 1.5-leaf stage measured after 3 weeks by pot test. Type of data set: organism-based. The conditions noted are these: in vivo, 504 h.
Data set [4] concerns Triticum aestivum. Nature of the data set: Phytotoxicity against Triticum aestivum (wheat) under greenhouse conditions at 1.3 g/a at 1.5-leaf stage measured after 3 weeks by pot test. Type of data set: organism-based. Conditions: in vivo, 504 h.
Data set [5] relates to Triticum aestivum. Put plainly: Phytotoxicity against Triticum aestivum (wheat) under greenhouse conditions at 0.6 g/a at 1.5-leaf stage measured after 3 weeks by pot test. Conditions: in vivo, 504 h. Type of data set: organism-based.
Data set [6] has as its system Triticum aestivum. Put plainly: Phytotoxicity against Triticum aestivum (wheat) under greenhouse conditions at 0.3 g/a at 1.5-leaf stage measured after 3 weeks by pot test. Type of data set: organism-based. The conditions noted are these: in vivo, 504 h.
In data set [7] the test system is Avena fatua. Nature of the data set: Post-emergence herbicidal activity against Avena fatua under greenhouse conditions at 0.3 g/a at 1.5-leaf stage measured after 3 weeks by pot test. The data set is classed as functional, organism-based.
The subject of data set [8] is Avena fatua. Nature of the data set: Post-emergence herbicidal activity against Avena fatua under greenhouse conditions at 5 g/a at 1.5-leaf stage measured after 3 weeks by pot test. Type of data set: functional, organism-based.
Data set [9] relates to Avena fatua. Put plainly: Post-emergence herbicidal activity against Avena fatua under greenhouse conditions at 2.5 g/a at 1.5-leaf stage measured after 3 weeks by pot test. The data set is classed as functional, organism-based.
Data set [10] concerns Avena fatua. Put plainly: Post-emergence herbicidal activity against Avena fatua under greenhouse conditions at 1.3 g/a at 1.5-leaf stage measured after 3 weeks by pot test. Type of data set: functional, organism-based.
Data set [11] relates to Avena fatua. Put plainly: Post-emergence herbicidal activity against Avena fatua under greenhouse conditions at 0.6 g/a at 1.5-leaf stage measured after 3 weeks by pot test. The data set is classed as functional, organism-based.
The test system of data set [12] is Triticum aestivum. Put plainly: Phytotoxicity against Triticum aestivum (wheat) under greenhouse conditions at 40 g/a at 1.5-leaf stage measured after 3 weeks by pot test. Type of data set: organism-based. Conditions: in vivo, 504 h.
Data set [13] concerns Avena fatua. Put plainly: Post-emergence herbicidal activity against Avena fatua under greenhouse conditions at 40 g/a at 1.5-leaf stage measured after 3 weeks by pot test. The data set is classed as functional, organism-based.
Data set [14] deals with Triticum aestivum. Put plainly: Phytotoxicity against Triticum aestivum (wheat) under greenhouse conditions at 10 g/a at 1.5-leaf stage measured after 3 weeks by pot test. Type of data set: organism-based. The conditions noted are these: in vivo, 504 h.
In data set [15] the test system is Avena fatua. Put plainly: Post-emergence herbicidal activity against Avena fatua under greenhouse conditions at 10 g/a at 1.5-leaf stage measured after 3 weeks by pot test. The data set is classed as functional, organism-based.

Each structure is given as a SMILES string. The source made the active and inactive calls. The calls are words filed in the database; no cut-off is given here.

On to `CCNC(=O)CNC(=O)C(C)Oc1ccc(Oc2ncc(Cl)cc2Cl)cc1` (stereo not given), for which the Ratio in the data set with Avena fatua [1] is recorded as 2. In addition, the Activity result in the data set on Triticum aestivum [2], in the data set on Triticum aestivum [3], in the data set on Triticum aestivum [4], in the data set on Triticum aestivum [5] and with Triticum aestivum [6] was “Non-toxic” in each case. For the same compound, the outcome with Avena fatua [7], with Avena fatua [8], in the data set with Avena fatua [9], with Avena fatua [10] and in the data set on Avena fatua [11] was Active.
As to `CC(Oc1ccc(Oc2ccc(Cl)cc2Cl)cc1)C(=O)NOCC(=O)O` (stereo not given), the Activity entry with Triticum aestivum [12] is “Non-toxic”. The outcome in the data set with Avena fatua [13] was inactive.
`CC(Oc1ccc(Oc2ncc(Cl)cc2Cl)cc1)C(=O)N(C)C` (stereo not given): the Activity entry in the data set on Triticum aestivum [12] was “Non-toxic”. In addition, the result with Avena fatua [13] was inactive.
Consider `CC(Oc1ccc(Oc2ncc(Cl)cc2Cl)cc1)C(N)=O` (stereo not given), for which the Activity entry in the data set on Triticum aestivum [3], in the data set on Triticum aestivum [4], in the data set on Triticum aestivum [5] and with Triticum aestivum [6] was “Non-toxic” in each case. In the data set with Avena fatua [7], the outcome was inactive. In addition, the result in the data set on Avena fatua [9], in the data set with Avena fatua [10] and with Avena fatua [11] was Active.
Take `CC(Oc1ccc(Oc2ccc(C(F)(F)F)cn2)cc1)C(=O)O` (stereo not given) [FLUAZIFOP]: the Activity entry with Triticum aestivum [3], in the data set on Triticum aestivum [4], in the data set on Triticum aestivum [5] and in the data set on Triticum aestivum [6] was “Toxic” throughout. For the same compound, the outcome with Avena fatua [7], in the data set on Avena fatua [9], in the data set with Avena fatua [10] and with Avena fatua [11] was Active.
Regarding `COC(=O)C(C)Oc1ccc(Oc2ccc(Cl)cc2Cl)cc1` (stereo not given) [DICLOFOP-METHYL], the Activity entry in the data set on Triticum aestivum [2], with Triticum aestivum [14], in the data set with Triticum aestivum [3], in the data set on Triticum aestivum [4] and in the data set on Triticum aestivum [5] was “Non-toxic” each time. For the same compound, the outcome with Avena fatua [15], with Avena fatua [8] and in the data set on Avena fatua [9] was Active. For the same compound, the outcome in the data set with Avena fatua [10] and with Avena fatua [11] was inactive.
For the compound `CCCNC(=O)CNC(=O)C(C)Oc1ccc(Oc2ncc(Cl)cc2Cl)cc1` (stereo not given), the Activity entry in the data set on Triticum aestivum [3] is “Toxic”; in the data set on Triticum aestivum [4], “Non-toxic”; in the data set on Triticum aestivum [5], “Non-toxic”; in the data set on Triticum aestivum [6] it was “Non-toxic”. In addition, in the data set on Avena fatua [7], the result was inactive. In addition, the result in the data set with Avena fatua [9], in the data set on Avena fatua [10] and in the data set with Avena fatua [11] was Active.
For the compound `COC(=O)CNC(=O)C(C)Oc1ccc(Oc2ncc(Cl)cc2Cl)cc1` (stereo not given), the Activity entry with Triticum aestivum [3], with Triticum aestivum [4], in the data set with Triticum aestivum [5] and in the data set on Triticum aestivum [6] was “Non-toxic” each time. In addition, the outcome with Avena fatua [7], in the data set on Avena fatua [9], in the data set with Avena fatua [10] and in the data set on Avena fatua [11] was Active.
In the case of `CC(Oc1ccc(Oc2ccc(Cl)cc2Cl)cc1)C(=O)O` (stereo not given) [DICLOFOP], the Activity result with Triticum aestivum [2], in the data set with Triticum aestivum [14], in the data set with Triticum aestivum [3] and with Triticum aestivum [4] was “Non-toxic” each time. Moreover, the result in the data set with Avena fatua [15], with Avena fatua [8], in the data set with Avena fatua [9] and in the data set on Avena fatua [10] was Active.

The record behind these values is ChEMBL document CHEMBL3045519, “Selective Herbicidal Activity of 3, 5-Dichloropyridyloxy-phenoxypropionamidoxyacetic Acid Derivatives between Wheat and Wild Oat” (J Pestic Sci, 1996).
